For 26 compounds, IC50 results are on record in patent US20130030000A1, “PHARMACEUTICAL COMPOSITIONS FOR THE TREATMENT OF PAIN AND OTHER INDICATIONS” (priority 2010, published 2013).

Structures can show the parent of a compound that is named as a salt.

One experiment deals with T1, Human FAAH (Homo sapiens, UniProt O00519).
T1 construct: The full length FAAH was subcloned into the mammalian expression vector, peDEF.neo
T1 sequence (O00519 1-579): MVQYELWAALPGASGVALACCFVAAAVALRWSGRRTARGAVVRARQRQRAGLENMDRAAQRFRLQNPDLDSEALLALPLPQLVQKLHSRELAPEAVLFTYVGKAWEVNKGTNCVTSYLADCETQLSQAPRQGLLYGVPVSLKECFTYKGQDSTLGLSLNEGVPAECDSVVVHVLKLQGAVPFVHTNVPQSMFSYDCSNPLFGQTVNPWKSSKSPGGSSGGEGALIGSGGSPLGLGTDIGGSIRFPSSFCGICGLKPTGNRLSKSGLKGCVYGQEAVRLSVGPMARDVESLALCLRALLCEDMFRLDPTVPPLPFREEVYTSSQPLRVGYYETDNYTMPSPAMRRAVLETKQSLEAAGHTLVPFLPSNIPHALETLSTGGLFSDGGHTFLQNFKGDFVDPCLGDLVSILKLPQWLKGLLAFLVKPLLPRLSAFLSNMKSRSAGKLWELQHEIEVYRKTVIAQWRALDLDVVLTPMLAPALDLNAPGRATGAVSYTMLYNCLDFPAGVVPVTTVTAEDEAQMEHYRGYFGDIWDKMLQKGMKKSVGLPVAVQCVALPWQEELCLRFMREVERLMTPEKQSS
The experiment is described as follows: Human FAAH lysate assay (CHO cell lysate expressing FAAH, AAMCA or 3H-anandamide hydrolysis). In kind it is biochemical. The conditions noted are these: B series; read-out: Human FAAH lysate assay: IC50. From the text: To assist in assay development stable cell lines for human, murine and rat full length FAAH were developed. […] The full length FAAH was subcloned into the mammalian expression vector, peDEF.neo, using XbaI and EcoRI restriction sites and used for stable cell line generation.
CHO cells expressing FAAH were used to prepare either crude cell lysate or microsome fractions. To harvest cells, tissue culture media was decanted, the monolayer washed three times with Ca^++Mg^++ free PBS and cells recovered after […] in enzyme free dissociation media (Millipore Corp, Billerica, Mass.). Cells were collected by centrifuging at 2000 rpm for 15 min. and the cell pellet re-suspended with 50 mM HEPES (pH 7.4) containing 1 mM EDTA and the protease inhibitors aprotinin (1 mg/ml) and leupeptin (100 μM). The suspension was sonicated at 4° C. and the cell lysate recovered after centrifuging at 12,000×g (14,600 rpm, SS34 rotor) for 20 min at 4° C. to form a crude pellet of cell debris, nuclei, peroxisomes, lysosomes, and mitochondria; the supernatant or cell lysate was used for FAAH enzyme assay. In some cases, microsomes fractions enriched in FAAH were prepared by centrifuging the cell lysate further at 27,000 rpm (100,000×g) in SW28 rotor for 50 minutes at 4° C. The pellet containing FAAH-enriched microsomes was re-suspend in 50 mM HEPES, (pH 7,4) 1 mM EDTA, and any remaining DNA sheared by passage of material through a 23 gauge needle and aliquots of enzyme were store at −80° C. prior to use.
Assays are performed on either cell lysate or microsome fractions prepared as described or in whole cell format employing either the fluorescent substrate AAMCA (Cayman chemical, Ann Arbor, Mich.,) or ^3H-anandamide ([ETHANOLAMINE-1-3H] American Radiolabeled Chemicals; 1 mCi/ml). The cell lysate or microsome assay is performed in Costar black wall, clear bottom plates by adding FAAH_CHO (whole cell, cell lysate or microsome) in assay buffer (50 mM Phosphate, pH 8.0, 1 mM EDTA, 200 mM KCl, 0.2% glycerol, 0.1% fatty acid free BSA) to each well, followed by either DMSO or compound and allowed to incubate at 22-25° C. for fifteen minutes. AAMCA substrate was used to achieve a final concentration of 1 μM and reaction allowed to proceed at room temperature for 1-3 hours. […] Whole cell assay is conducted with cells harvested after rinsing tissue culture flasks three times with Ca^++Mg^++ free PBS, incubating for 10 mm in Enzyme free dissociation media and centrifuging for 5 minutes at 1,000 rpm in table top centrifuge. Cells are resuspended in assay buffer at desired cell number in (4×10^4 cells/assay in 96-well format; 1×10^4 cells/assay in 384-well format) and assayed as described.
Alternatively, assays are performed using anandamide [ethanolamine 1-^3H] (specific activity of 10 Ci/mmol) diluted with cold anandamide to achieve a final assay concentration of 1 μM anandamide (˜50,000 cpm). Enzyme (CHO cell lysate, brain or liver homogenate) is incubated in assay buffer (50 mM Phosphate, pH 8.0, 1 mM EDTA, 200 mM KCl, 0.2% glycerol, 0.1% fatty acid free BSA) with inhibitor at 25° C. for 30 minutes. The reaction was terminated by addition of 2 volumes of chloroform:methanol (1:1) and mixed by vortexing. Following a centrifugation step, 2000 rpm for 10 min. at room temperature, the aqueous phase containing the released […] was recovered and quantitated by liquid scintillation as a reflection of FAAH enzyme activity.
Take `CN(C)C(=O)C1CC1c1ccc(-c2ncn(C)c2Sc2ccc(Cl)cn2)cc1` (centres unmarked) [Example 1B, 2-(4-{5[(5-Chloropyridin-2yl-)thio]-1-methyl-1H-imidazol-4-yl}phenyl)-N,N-dimethylcyclopropanecarboxamide]: the concentration for half-maximal inhibition (IC50) was 0.0014 µM. The same measure, in the same setting: under `Cn1cnc(-c2ccc([C@H]3C[C@@H]3c3noc(=O)[nH]3)cc2)c1Sc1ccc(Cl)cn1` [Example 36B, 5-[(5-chloropyridin-2-yl)thio]-1-methyl-4-{4-[(1S,2S)-2-(5-oxo-4,5-dihydro-1,2,4-oxadiazol-3-yl)cyclopropyl]phenyl}-1H-imidazol-3-ium trifluoroacetate] stands 0.0954 µM; under `CN(CCF)C(=O)[C@H]1C[C@@H]1c1ccc(-c2ncn(C)c2Sc2ccc(Cl)cn2)cc1` [Example 11B, (1S,2S)-2-(4-{5-[(5-Chloropyridin-2-yl)thio]-1-methyl-1H-imidazol-4-yl}phenyl)-N-(2-fluoroethyl)-N-methylcyclopropanecarboxamide], 0.003 µM; under `Cn1cnc(-c2ccc([C@H]3C[C@@H]3c3n[nH]c(=O)n3C)cc2)c1Sc1ccc(Cl)cn1` [Example 34B, 5-[(1S,2S)-2-(4-{5-[(5-chloropyridin-2yl)thio]-1-methyl-1H-imidazol-4-yl}phenyl)cyclopropyl]-4-methyl-2,4-dihydro-3H-1,2,4-triazol-3-one], 0.893 µM. The same measure, in the same setting: under `Cn1cnc(-c2ccc([C@H]3C[C@@H]3c3n[nH]c(=S)[nH]3)cc2)c1Sc1ccc(Cl)cn1` [Example 32B, 5-[(1S,2S)-2-(4-{5-[(5-chloropyridin-2-yl)thio]-1-methyl-1H-imidazol-4-yl}phenyl)cyclopropyl]-2,4-dihydro-3H-1,2,4-triazole-3-thione] stands 0.304 µM. The same measure, in the same setting: under `COc1nnc([C@H]2C[C@@H]2c2ccc(-c3ncn(C)c3Sc3ccc(Cl)cn3)cc2)o1` [Example 18B, 5-Chloro-2-[(4-{4-[(1S,2S)-2-(5-methoxy-1,3,4-oxadiazol-2-yl)cyclopropyl]phenyl}-1-methyl-1H-imidazol-5-yl)thio]pyridine] stands 0.0156 µM; under `COC[C@H]1C[C@@H]1c1ccc(-c2ncn(C)c2Sc2ccc(Cl)cn2)cc1` [Example 24B, 5-Chloro-2-[(4-{4-[(1S,2S)-2-(methoxymethyl)cyclopropyl]phenyl}-1-methyl-1H-imidazol-5-yl)thio]pyridine], 0.0355 µM; under `Cn1cnc(-c2ccc([C@H]3C[C@@H]3c3n[nH]c(=O)o3)cc2)c1Sc1ccc(Cl)cn1` [Example 17B, 5-[(1S,2S)-2-(4-{5-[(5-Chloropyridin-2-yl)thio]-1-methyl-1H-imidazol-4-yl}phenyl)cyclopropyl]-1,3,4-oxadiazol-2(3H)-one], 0.0045 µM. `Cc1nnc([C@H]2C[C@@H]2c2ccc(-c3ncn(C)c3Sc3ccc(Cl)cn3)cc2)o1` [Example 19B, 5-Chloro-2-[(1-methyl-4-{4-[(1S,2S)-2-(5-methyl-1,3,4-oxadiazol-2-yl)cyclopropyl]phenyl}-1H-imidazol-5-yl)thio]pyridine]: the IC50 came out at 0.046 µM. The same measure, in the same setting: under `CN(C)C(=O)[C@H]1C[C@@H]1c1ccc(-c2nc[nH]c2Sc2ccc(Cl)cn2)cc1` [Example 20B, (1S,2S)-2-(4-{5-[(5-Chloropyridin-2-yl)thio]-1H-imidazol-4-yl}phenyl)-N,N-dimethylcyclopropanecarboxamide] stands 0.65 µM; under `Cn1nnc([C@H]2C[C@@H]2c2ccc(-c3ncn(C)c3Sc3ccc(Cl)cn3)cc2)n1` [Example 38B, 5-chloro-2-[(1-methyl-4-{4-[(1 S,2S)-2-(2-methyl-2H-tetrazol-5-yl)cyclopropyl]phenyl}-1H-imidazol-5-yl)thio]pyridine], 0.037 µM; under `Cn1cnc(-c2ccc([C@H]3C[C@@H]3c3nn[nH]n3)cc2)c1Sc1ccc(Cl)cn1` [Example 37B, 5-[(5-chloropyridin-2-yl)thio]-1-methyl-4-{4-[(1S,2S)-2-(2H-tetrazol-5-yl)cyclopropyl]phenyl}-1H-imidazol-3-ium trifluoroacetate], 0.167 µM.

Regarding `Cn1cnc(-c2ccc([C@H]3C[C@@H]3C(=O)NCCF)cc2)c1Sc1ccc(Cl)cn1` [Example 1013, (1S,2S)-2-(4-{5-[(5-Chloropyridin-2-yl)thio]-1-methyl-1H-imidazol-4-yl}phenyl)-N-(2-fluoroethyl)cyclopropanecarboxamide], the IC50 is 0.0015 µM. On the same count and under the same terms, for `Cn1cnc(-c2ccc([C@H]3C[C@@H]3c3n[nH]c(=S)o3)cc2)c1Sc1ccc(Cl)cn1` [Example 31B, 5-[(1S,2S)-2-(4-{5-[(5-chloropyridin-2-yl)thio]-1-methyl-1H-imidazol-4-yl}phenyl)cyclopropyl]-1,3,4-oxadiazole-2(3H)-thione] the value was 0.677 µM; for `CN(C)C(=O)C1CC1c1ccc(-c2nc(C3CC3)n(C)c2Sc2ccc(Cl)cn2)cc1` (centres unmarked) [Example 13B, 5-[(5-Chloropyridin-2-yl)thio]-2-cyclopropyl-4-(4-{2-[(dimethylamino)carbonyl]cyclopropyl}phenyl)-1-methyl-1H-imidazol-3-ium trifluoroacetate], 0.0483 µM; for `Cn1cnc(-c2ccc([C@H]3C[C@@H]3c3nn(C)c(=O)o3)cc2)c1Sc1ccc(Cl)cn1` [Example 3013, 5-[(1S,2S)-2-(4-{5-[(5-chloropyridin-2-yl)thio]-1-methyl-1H-imidazol-4-yl}phenyl)cyclopropyl]-3-methyl-1,3,4-oxadiazol-2(3H)-one], 0.171 µM. Turning to `Cn1cnc(-c2ccc([C@H]3C[C@@H]3C(C)(C)O)cc2)c1Sc1ccc(Cl)cn1` [Example 22B, 2-[(1S,2S)-2-(4-{5-[(5-Chloropyridin-2-yl)thio]-1-methyl-1H-imidazol-4-yl}phenyl)cyclopropyl]propan-2-ol], the concentration for half-maximal inhibition (IC50) worked out at 0.0087 µM.

The same experiment, now with this note: tables of the B series; read-out: hFAAH lysate IC50.
For `Cn1cnc(-c2ccc([C@H]3C[C@@H]3C(=O)NC(C)(C)C)cc2)c1Sc1ccc(Cl)cn1` [Example 8B], the IC50 is 0.196 µM. Still for that read-out and setting: for `CNC(=O)[C@H]1C[C@@H]1c1ccc(-c2ncn(C)c2Sc2ccc(Cl)cn2)cc1` [Example 6B] the value was 0.0011 µM; for `Cn1cnc(-c2ccc([C@H]3C[C@@H]3c3n[nH]c(=O)o3)cc2)c1Sc1ccc(Cl)cc1` [Example 39B], 0.024 µM. As for `CC(C)c1ccc(Sc2c(-c3ccc([C@H]4C[C@@H]4c4n[nH]c(=O)o4)cc3)ncn2C)cc1` [Example 43B], the concentration for half-maximal inhibition (IC50) worked out at 0.02 µM. On the same count and under the same terms, for `CNC(=O)[C@H]1C[C@@H]1c1ccc(-c2ncn(CCF)c2Sc2ccc(Cl)cn2)cc1` [Example 15B] the value was 0.0058 µM; for `Cn1cnc(-c2ccc([C@H]3C[C@@H]3C(N)=O)cc2)c1Sc1ccc(Cl)cn1` [Example 7B], 0.0033 µM; for `Cn1cnc(-c2ccc(C3CC3C(N)=O)cc2)c1Sc1ccc(Cl)cn1` (centres unmarked) [Example 4B], 0.0026 µM.

In the case of `CC(C)NC(=O)C1CC1c1ccc(-c2ncn(C)c2Sc2ccc(Cl)cn2)cc1` (centres unmarked) [Example 2B], the IC50 amounted to 0.0063 µM. The same measure, in the same setting: for `COc1cnc(Sc2c(-c3ccc([C@H]4C[C@@H]4c4n[nH]c(=O)o4)cc3)ncn2C)nc1` [Example 40B] the value was 0.033 µM.
